Measurements published in US20260242391A1 (priority 2023, published 2026).

Columns and labels:
[1] = tested on: HL-60; assay: HL-60 differentiation potency; format: cell-based; conditions: Homo sapiens
[2] = in vitro; conditions: human

EC50 [1] [nM]	IC50 [2] [nM]	SMILES	IC50 ([2]; HL-60 cells) [nM]
88.2	17600	C[C@H]1[C@@H](Oc2ccc(OCCC(=O)O)cc2)O[C@@H]2O[C@@]3(C)CC[C@H]4[C@H](C)CC[C@@H]1[C@@]24OO3 [Compound 250, 3-(4-(((3R,5aS,6R,8aS, 9R,10S,12R, 12aR)-3,6,9-trimethyldeca-hydro-12H-3,12-epoxy[1,2]dioxepino[4,3-i]isochromen-10-yl)oxy)phenoxy) propanoic acid]	
98.2	1520	C[C@H]1[C@@H](Oc2ccc(C(=O)N[C@H](C(=O)O)C3CCC3)cc2)O[C@@H]2O[C@@]3(C)CC[C@H]4[C@H](C)CC[C@@H]1[C@@]24OO3 [Compound 251, (S)-2-cyclobutyl-2-(4-(((3R,5aS,6R,8aS, 9R,10S,12R, 12aR)-3,6,9-trimethyldeca-hydro-12H-3,12-epoxy[1,2]dioxepino[4,3-i]isochromen-10-yl)oxy)benzamido) acetic acid]	
3210	11500	C[C@H]1[C@@H](O[C@H]2C[C@@H](C(=O)N[C@H](C(=O)O)c3ccc(C(F)(F)F)cc3)C2)O[C@@H]2O[C@@]3(C)CC[C@H]4[C@H](C)CC[C@@H]1[C@@]24OO3 [Compound 257, (S)-2-(4-(trifluoromethyl)phenyl)-2-((1R,3R)-3-(((3R,5aS,6R,8aS, 9R,10S,12R, 12aR)-3,6,9-trimethyldeca-hydro-12H-3,12-epoxy[1,2]dioxepino[4,3-i]isochromen-10-yl)oxy)cyclo-butane-1-carboxamido) acetic acid]	
422	> 20000	C[C@H]1[C@H](OCC23[C@H]4[C@H]5[C@@H]2[C@H]2[C@@H]3[C@@H]4C52C(=O)O)O[C@@H]2O[C@@]3(C)CC[C@H]4[C@H](C)CC[C@@H]1[C@@]24OO3 (stereo partly drawn) [Compound 260, (2R,3R,5R,6R,7R, 8R)-4-((((3R,5aS,6R,8aS, 9R,10R,12R, 12aR)-3,6,9-trimethyldeca-hydro-12H-3,12-epoxy[1,2]dioxepino[4,3-i]isochromen-10-yl)oxy)methyl) cubane-1-carboxylic acid]	
< 10	360	CC(C)[C@H](Oc1ccc(O[C@H]2O[C@@H]3O[C@@]4(C)CC[C@H]5[C@H](C)CC[C@@H]([C@H]2C)[C@@]35OO4)cc1)C(=O)O [Compound 261, (S)-3-methyl-2-(4-(((3R,5aS,6R,8aS, 9R,10S,12R, 12aR)-3,6,9-trimethyldeca-hydro-12H-3,12-epoxy[1,2]dioxepino[4,3-i]isochromen-10-yl)oxy)phenoxy) butanoic acid]	
11400	> 20000	C[C@H]1[C@@H](O[C@H]2CC[C@@H](C(=O)NC3(C(=O)O)CC3)CC2)O[C@@H]2O[C@@]3(C)CC[C@H]4[C@H](C)CC[C@@H]1[C@@]24OO3 [Compound 262, 1-((1R,4s)-4-(((3R,5aS,6R,8aS, 9R,10S,12R, 12aR)-3,6,9-trimethyldeca-hydro-12H-3,12-epoxy[1,2]dioxepino[4,3-i]isochromen-10-yl)oxy)cyclohexane-1-carboxamido) cyclopropane-1-carboxylic acid]	
374	16800	C[C@H]1[C@@H](OC[C@H]2CC[C@@H](C(=O)N3CC[C@@H](C(=O)O)C3)CC2)O[C@@H]2O[C@@]3(C)CC[C@H]4[C@H](C)CC[C@@H]1[C@@]24OO3 [Compound 263, (R)-1-((1R,4S)-4-((((3R,5aS,6R,8aS, 9R,10S,12R, 12aR)-3,6,9-trimethyldeca-hydro-12H-3,12-epoxy[1,2]dioxepino[4,3-i]isochromen-10-yl)oxy)methyl)cyclohexane-1-carbonyl) pyrrolidine-3-carboxylic acid]	
159	1430	C[C@H]1[C@@H](Oc2ccc(Cn3cc(C(=O)O)nn3)c(Br)c2)O[C@@H]2O[C@@]3(C)CC[C@H]4[C@H](C)CC[C@@H]1[C@@]24OO3 [Compound 264, 1-(2-bromo-4-(((3R,5aS,6R,8aS,9R,10S,12R, 12aR)-3,6,9-trimethyldeca-hydro-12H-3,12-epoxy[1,2]dioxepino[4,3-i]isochromen-10-yl)oxy)benzyl)-1H-1,2,3-triazole-4-carboxylic acid]	
6450	17200	C[C@H]1[C@@H](Oc2ccc(C(=O)NC3(C(=O)O)COC3)cc2Cl)O[C@@H]2O[C@@]3(C)CC[C@H]4[C@H](C)CC[C@@H]1[C@@]24OO3 [Compound 265, 3-(3-chloro-4-(((3R,5aS,6R,8aS, 9R,10S,12R, 12aR)-3,6,9-trimethyldeca-hydro-12H-3,12-epoxy[1,2]dioxepino[4,3-i]isochromen-10-yl)oxy)benzamido) oxetane-3-carboxylic acid]	
10.3	60	CC(C)C(C(=O)O)c1ccc(O[C@H]2O[C@@H]3O[C@@]4(C)CC[C@H]5[C@H](C)CC[C@@H]([C@H]2C)[C@@]35OO4)c(F)c1 (stereo partly drawn) [Compound 266, 2-(3-fluoro-4-(((3R,5aS,6R,8aS, 9R,10S,12R, 12aR)-3,6,9-trimethyldeca-hydro-12H-3,12-epoxy[1,2]dioxepino[4,3-i]isochromen-10-yl)oxy)phenyl)-3-methylbutanoic acid]	

The remaining lines, values behind:

SMILES	EC50 [1] [nM]	IC50 [2] [nM]	IC50 ([2]; HL-60 cells) [nM]
C[C@H]1[C@@H](O[C@H]2CC[C@@H](C(=O)N[C@H](C(=O)O)C3CCC3)CC2)O[C@@H]2O[C@@]3(C)CC[C@H]4[C@H](C)CC[C@@H]1[C@@]24OO3 [Compound 252, (S)-2-cyclobutyl-2-((1R,4R)-4-(((3R,5aS,6R,8aS, 9R,10S,12R, 12aR)-3,6,9-trimethyldeca-hydro-12H-3,12-epoxy[1,2]dioxepino[4,3-i]isochromen-10-yl)oxy)cyclohexane-1-carboxamido) acetic acid]	242	> 20000	
C[C@H]1[C@@H](OCC23[C@H]4[C@H]5[C@@H]2[C@H]2[C@@H]3[C@@H]4C52C(=O)O)O[C@@H]2O[C@@]3(C)CC[C@H]4[C@H](C)CC[C@@H]1[C@@]24OO3 (stereo partly drawn) [Compound 253, (2S,3S,5S,6S,7S, 8S)-4-((((3R,5aS,6R,8aS, 9R,10S,12R, 12aR)-3,6,9-trimethyldeca-hydro-12H-3,12-epoxy[1,2]dioxepino[4,3-i]isochromen-10-yl)oxy)methyl) cubane-1-carboxylic acid]	237	> 20000	
C[C@H]1[C@@H](Oc2ccc(C(=O)N[C@H](C(=O)O)C(C)(C)O)cc2)O[C@@H]2O[C@@]3(C)CC[C@H]4[C@H](C)CC[C@@H]1[C@@]24OO3 [Compound 254, (S)-3-hydroxy-3-methyl-2-(4-(((3R,5aS,6R,8aS, 9R,10S,12R, 12aR)-3,6,9-trimethyldeca-hydro-12H-3,12-epoxy[1,2]dioxepino[4,3-i]isochromen-10-yl)oxy)benzamido) butanoic acid]	4580	> 20000	
C[C@H]1[C@@H](O[C@H]2C[C@@H](C(=O)NC34C5C6C3C3C4C5C63C(=O)O)C2)O[C@@H]2O[C@@]3(C)CC[C@H]4[C@H](C)CC[C@@H]1[C@@]24OO3 (stereo partly drawn) [Compound 255, 4-((1R,3s)-3-(((3R,5aS,6R,8aS, 9R,10S,12R, 12aR)-3,6,9-trimethyldeca-hydro-12H-3,12-epoxy[1,2]dioxepino[4,3-i]isochromen-10-yl)oxy)cyclo-butane-1-carboxamido) cubane-1-carboxylic acid]	2320	> 20000	
C[C@H]1[C@@H](OC[C@H]2CC[C@@H](C(=O)N[C@@H](CC(F)(F)F)C(=O)O)CC2)O[C@@H]2O[C@@]3(C)CC[C@H]4[C@H](C)CC[C@@H]1[C@@]24OO3 [Compound 256, (S)-4,4,4-trifluro-2-((1R,4R)-4-((((3R,5aS,6R,8aS, 9R,10S,12R, 12aR)-3,6,9-trimethyldeca-hydro-12H-3,12-epoxy[1,2]dioxepino[4,3-i]isochromen-10-yl)oxy)methyl)cyclohexane-1-carboxamido) butanoic acid]	3070	15300	
C[C@H]1[C@@H](Oc2ccc(C(=O)N3[C@H](C(=O)O)C[C@@H]4C[C@@H]43)cc2)O[C@@H]2O[C@@]3(C)CC[C@H]4[C@H](C)CC[C@@H]1[C@@]24OO3 [Compound 258, (1S,3S,5S)-2-(4-(((3R,5aS,6R,8aS, 9R,10S,12R, 12aR)-3,6,9-trimethyldeca-hydro-12H-3,12-epoxy[1,2]dioxepino[4,3-i]isochromen-10-yl)oxy)benzoyl)-2-azabicyclo [3.1.0]hexane-3-carboxylic acid]	> 20000	> 20000	
C[C@H]1[C@@H](O[C@H]2CC[C@@H](C(=O)N3CC(C(=O)O)C3)CC2)O[C@@H]2O[C@@]3(C)CC[C@H]4[C@H](C)CC[C@@H]1[C@@]24OO3 [Compound 259, 1-((1R,4s)-4-(((3R,5aS,6R,8aS, 9R,10S,12R, 12aR)-3,6,9-trimethyldeca-hydro-12H-3,12-epoxy[1,2]dioxepino[4,3-i]isochromen-10-yl)oxy)cyclo-hexane-1-carbonyl) azetidine-3-carboxylic acid]	172		10800
C[C@H]1[C@@H](Oc2ccc(OC3(C(=O)O)CC3)cc2)O[C@@H]2O[C@@]3(C)CC[C@H]4[C@H](C)CC[C@@H]1[C@@]24OO3 [Compound 268, 1-(4-(((3R,5aS,6R,8aS, 9R,10S,12R, 12aR)-3,6,9-trimethyldeca-hydro-12H-3,12-epoxy[1,2]dioxepino[4,3-i]isochromen-10-yl)oxy)phenoxy) cyclopropane-1-carboxylic acid]	48.9	4280	
C[C@H]1[C@@H](OC/C=C/[C@@H]2CCC[C@H](C(=O)O)C2)O[C@@H]2O[C@@]3(C)CC[C@H]4[C@H](C)CC[C@@H]1[C@@]24OO3 [Compound 269, (1S,3R)-3-((E)-3-(((3R,5aS,6R,8aS, 9R,10S,12R, 12aR)-3,6,9-trimethyldeca-hydro-12H-3,12-epoxy[1,2]dioxepino[4,3-i]isochromen-10-yl)oxy)prop-1-en-1-yl) cyclohexane-1-carboxylic acid]	143	7330	
C[C@H]1[C@@H](Oc2ccc(C(C)(C)C(=O)O)cc2F)O[C@@H]2O[C@@]3(C)CC[C@H]4[C@H](C)CC[C@@H]1[C@@]24OO3 [Compound 270, 2-(3-fluoro-4-(((3R,5aS,6R,8aS, 9R,10S,12R, 12aR)-3,6,9-trimethyldeca-hydro-12H-3,12-epoxy[1,2]dioxepino[4,3-i]isochromen-10-yl)oxy)phenyl)-2-methyl-propanoic acid]	28.6	700	
